Experimental data as given in ChEMBL document CHEMBL2331312, “Dimerized linear mimics of a natural cyclopeptide (TMC-95A) are potent noncovalent inhibitors of the eukaryotic 20S proteasome” (J Med Chem, 2013).
pIC50, pKi: −log10 of the molar value. The source made the active and inactive calls. The calls are words filed in the database; no cut-off is given here.

Assays:
[1] = biological target: Cathepsin B (Homo sapiens) (UniProt P07858); experiment: Inhibition of human cathepsin B using Suc-LLVY-AMC as substrate assessed as remaining enzyme activity at 20 uM incubated for 15 mins prior to substrate addition measured for 30 mins by fluorescence assay
[2] = biological target: T1, Calpain-1 catalytic subunit (Homo sapiens) (UniProt P07384); experiment: Inhibition of human calpain 1 using Suc-LLVY-AMC as substrate assessed as remaining enzyme activity at 20 uM incubated for 5 mins prior to substrate addition measured for 30 mins by fluorescence assay
T1 sequence (whole entry): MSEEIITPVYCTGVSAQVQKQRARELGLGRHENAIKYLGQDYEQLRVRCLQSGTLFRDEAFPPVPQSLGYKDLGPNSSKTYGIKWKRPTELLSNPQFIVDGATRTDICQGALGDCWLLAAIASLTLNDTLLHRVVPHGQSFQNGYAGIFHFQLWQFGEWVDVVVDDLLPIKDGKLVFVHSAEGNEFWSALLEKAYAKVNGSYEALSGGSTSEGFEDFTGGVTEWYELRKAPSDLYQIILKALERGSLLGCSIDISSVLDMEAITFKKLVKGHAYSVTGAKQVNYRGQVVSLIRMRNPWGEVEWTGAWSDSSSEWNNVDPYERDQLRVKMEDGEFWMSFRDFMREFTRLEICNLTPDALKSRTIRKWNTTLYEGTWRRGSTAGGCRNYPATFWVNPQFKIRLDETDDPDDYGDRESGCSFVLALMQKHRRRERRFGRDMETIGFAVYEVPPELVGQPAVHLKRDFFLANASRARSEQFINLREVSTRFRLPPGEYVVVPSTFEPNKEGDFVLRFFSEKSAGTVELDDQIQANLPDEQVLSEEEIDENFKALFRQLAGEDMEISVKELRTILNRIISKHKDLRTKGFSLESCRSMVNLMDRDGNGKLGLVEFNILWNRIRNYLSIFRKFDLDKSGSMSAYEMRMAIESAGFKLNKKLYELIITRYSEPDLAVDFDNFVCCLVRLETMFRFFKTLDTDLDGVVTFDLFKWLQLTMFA

[3] = biological target: T2, Proteasome component C5 (Homo sapiens) (UniProt P20618); experiment: Inhibition of postacid activity of 20s proteasome beta-1 subunit in HEK293 cells using Z-nLPnLD-Glo as substrate at 10 uM incubated for 2 hrs prior to substrate addition measured after 10 mins by cell-based proteasome-Glo beta1 assay
T2 sequence (whole entry): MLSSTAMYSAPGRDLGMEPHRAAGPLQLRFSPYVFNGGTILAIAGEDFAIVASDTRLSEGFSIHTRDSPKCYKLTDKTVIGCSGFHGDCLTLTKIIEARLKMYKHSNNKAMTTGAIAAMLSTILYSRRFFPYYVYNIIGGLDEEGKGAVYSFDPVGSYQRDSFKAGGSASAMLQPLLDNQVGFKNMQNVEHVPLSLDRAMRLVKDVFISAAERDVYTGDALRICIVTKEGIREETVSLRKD

[4] = biological target: T3, Proteasome Macropain subunit MB1 (Homo sapiens, UniProt P28074)
T3 sequence (P28074 whole entry): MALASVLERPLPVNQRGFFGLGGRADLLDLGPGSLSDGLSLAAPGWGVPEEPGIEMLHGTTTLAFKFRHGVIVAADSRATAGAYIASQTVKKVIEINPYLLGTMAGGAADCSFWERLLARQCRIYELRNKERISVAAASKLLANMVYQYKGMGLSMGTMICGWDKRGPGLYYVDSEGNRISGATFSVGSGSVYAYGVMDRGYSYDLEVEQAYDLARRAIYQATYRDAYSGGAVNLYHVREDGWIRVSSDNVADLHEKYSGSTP
Description: (§2) Inhibition of chymotrypsin-like activity of human constitutive 20s proteasome beta-5 subunit using Suc-LLVY-AMC as substrate assessed as remaining activity incubated for 15 mins prior to substrate addition measured after 45 mins by fluorescence assay

[5] = biological target: T3, Proteasome Macropain subunit MB1; remark: listed apart in the source
Description: Inhibition of chymotrypsin-like activity of proteasome beta-5 subunit in HEK293 cells using Suc-LLVY-Glo as substrate incubated for 2 hrs prior to substrate addition measured after 10 mins by cell-based proteasome-Glo beta5 assay

[6] = biological target: T3, Proteasome Macropain subunit MB1; remark: listed apart in the source
Description: Competitive inhibition of chymotrypsin-like activity of human constitutive 20s proteasome beta-5 subunit using Suc-LLVY-AMC as substrate assessed as inhibition constant for dissociation of enzyme-inhibitor complex incubated for 15 mins prior to substrate addition measured after 45 mins by fluorescence assay

[7] = biological target: T3, Proteasome Macropain subunit MB1; experiment: (§1) Noncompetitive inhibition of chymotrypsin-like activity of human constitutive 20s proteasome beta-5 subunit using Suc-LLVY-AMC as substrate assessed as inhibition constant for dissociation of enzyme-substrate-inhibitor complex incubated for 15 mins prior to substrate addition measured after 45 mins by fluorescence assay
[8] = biological target: T3, Proteasome Macropain subunit MB1; experiment: as §1, with “enzyme-inhibitor” for “enzyme-substrate-inhibitor”
[9] = biological target: Proteasome Macropain subunit (Homo sapiens, UniProt P49721); experiment: Inhibition of trypsin-like activity of human constitutive 20s proteasome beta-2 subunit using Boc-LRR-AMC as substrate assessed as remaining activity incubated for 15 mins prior to substrate addition measured after 45 mins by fluorescence assay
Proteasome Macropain subunit, sequence (P49721 whole entry): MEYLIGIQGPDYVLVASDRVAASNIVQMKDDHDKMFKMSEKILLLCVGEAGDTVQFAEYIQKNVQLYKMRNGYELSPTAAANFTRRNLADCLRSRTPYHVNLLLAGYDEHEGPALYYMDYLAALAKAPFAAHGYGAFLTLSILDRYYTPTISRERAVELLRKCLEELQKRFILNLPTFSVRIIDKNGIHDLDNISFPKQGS

[10] = biological target: T4, Proteasome Macropain subunit PRE2 (Saccharomyces cerevisiae S288c, UniProt P30656)
T4 sequence (P30656 whole entry): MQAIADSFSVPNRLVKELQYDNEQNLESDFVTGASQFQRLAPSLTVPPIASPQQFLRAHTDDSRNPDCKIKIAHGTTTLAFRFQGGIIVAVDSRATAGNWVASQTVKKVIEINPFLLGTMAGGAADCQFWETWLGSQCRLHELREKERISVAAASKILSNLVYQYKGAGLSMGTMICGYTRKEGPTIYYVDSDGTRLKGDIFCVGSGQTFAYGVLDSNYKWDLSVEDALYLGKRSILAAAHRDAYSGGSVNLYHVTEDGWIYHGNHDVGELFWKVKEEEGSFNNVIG
Description: Inhibition of chymotrypsin-like activity of yeast 20S proteasome beta-5 subunit using Suc-LLVY-AMC as substrate measured up to 45 mins by fluorescence assay

[11] = Half life of the compound in RPMI culture medium in presence of 20% fetal calf serum at 37 degC by HPLC analysis; type: physicochemical; settings: cattle, RPMI culture medium with 20% fetal calf serum
[12] = biological target: T3, Proteasome Macropain subunit MB1; experiment: as §1, with “Mixed type” for “Noncompetitive”
[13] = biological target: T3, Proteasome Macropain subunit MB1; experiment: as §1, with “Mixed type” for “Noncompetitive”, “enzyme-inhibitor” for “enzyme-substrate-inhibitor”
[14] = biological target: T2, Proteasome component C5 (Homo sapiens); experiment: Inhibition of postacid activity of 20s proteasome beta-1 subunit in HEK293 cells using Z-nLPnLD-Glo as substrate at 20 uM incubated for 2 hrs prior to substrate addition measured after 10 mins by cell-based proteasome-Glo beta1 assay
[15] = biological target: T3, Proteasome Macropain subunit MB1; remark: listed apart in the source
Description: as §2

Proteasome component C5 = biological target: T5, Proteasome component C5 (Homo sapiens, UniProt P20618)
T5 sequence (P20618 whole entry): T2 sequence (whole entry)
Description: Inhibition of postacid activity of human constitutive 20s proteasome beta-1 subunit using Z-LLE-betaNA as substrate assessed as remaining activity incubated for 15 mins prior to substrate addition measured after 45 mins by fluorescence assay

Row | Compound | inhibition [1] | inhibition [2] | inhibition [3] | pIC50 [4] | pIC50 [5] | pKi [6] | pKi [7] | pKi [8] | IC50 [9] | pIC50 [10] | half-life [11] | pKi [12] | pKi [13] | inhibition [14] | IC50 [15] | IC50 (Proteasome component C5)
1 | C[C@H](NC(=O)[C@H](Cc1ccc(OCc2ccccc2)cc1)NC(=O)CCCCCNC(=O)CCCCCNC(=O)CCCCCNC(=O)CCCCC(=O)NCCCCCC(=O)NCCCCCC(=O)NCCCCCC(=O)N[C@@H](Cc1ccc(OCc2ccccc2)cc1)C(=O)N[C@@H](C)C(=O)N[C@@H](C[C@]1(O)C(=O)Nc2ccccc21)C(=O)NCc1ccccc1)C(=O)N[C@@H](C[C@]1(O)C(=O)Nc2ccccc21)C(=O)NCc1ccccc1 | inactive | inactive | 30% | 7.72 | 6.32 | 7.97 |  |  |  |  |  |  |  |  |  | 
2 | C[C@H](NC(=O)[C@@H](N)Cc1ccc(OCc2ccccc2)cc1)C(=O)N[C@@H](C[C@]1(O)C(=O)Nc2ccccc21)C(=O)NCc1ccccc1 | inactive | inactive |  | 4.94 |  |  | 4.61 | 4.61 | Not Active | 5.03 |  |  |  |  |  | 
3 | C[C@H](NC(=O)[C@H](Cc1ccc(OCc2ccccc2)cc1)NC(=O)OC(C)(C)C)C(=O)N[C@@H](C[C@]1(O)C(=O)Nc2ccccc21)C(=O)NCc1ccccc1 | inactive | inactive |  | 5.50 | 5.10 |  |  |  |  | 5.82 | 50 h | 5.30 | 5.61 |  |  | 
4 | C/C=C\NC(=O)[C@H]1NC(=O)[C@H](CC(N)=O)CC(=O)[C@@H](NC(=O)C(=O)[C@@H](C)CC)Cc2ccc(O)c(c2)-c2cccc3c2NC(=O)[C@@]3(O)[C@@H]1O |  |  |  | 8.27 |  | 8.64 |  |  |  |  |  |  |  |  |  | 
5 | C[C@H](NC(=O)[C@H](Cc1ccc(OCc2ccccc2)cc1)NC(=O)CCCCCNC(=O)CCCCCNC(=O)CCCCCNC(=O)CCCCCNC(=O)OC(C)(C)C)C(=O)N[C@@H](C[C@]1(O)C(=O)Nc2ccccc21)C(=O)NCc1ccccc1 | inactive | inactive |  | 6.15 |  |  |  |  |  |  |  | 6.70 | 7.17 |  |  | 
6 | C[C@H](NC(=O)[C@H](Cc1ccc(OCc2ccccc2)cc1)NC(=O)CCCCCNC(=O)CCCCCNC(=O)CCCCCNC(=O)CCCCCNC(=O)CCCCC(=O)NCCCCCC(=O)NCCCCCC(=O)NCCCCCC(=O)NCCCCCC(=O)N[C@@H](Cc1ccc(OCc2ccccc2)cc1)C(=O)N[C@@H](C)C(=O)N[C@@H](C[C@]1(O)C(=O)Nc2ccccc21)C(=O)NCc1ccccc1)C(=O)N[C@@H](C[C@]1(O)C(=O)Nc2ccccc21)C(=O)NCc1ccccc1 | inactive | inactive |  | 7.70 |  | 8.22 |  |  |  |  |  |  |  |  |  | 
7 | C[C@H](NC(=O)[C@H](Cc1ccc(OCc2ccccc2)cc1)NC(=O)CCCCCNC(=O)CCCCCNC(=O)CCCCCNC(=O)CCCCCNC(=O)CCCCC(=O)N[C@@H](Cc1ccc(OCc2ccccc2)cc1)C(=O)N[C@@H](C)C(=O)N[C@@H](C[C@]1(O)C(=O)Nc2ccccc21)C(=O)NCc1ccccc1)C(=O)N[C@@H](C[C@]1(O)C(=O)Nc2ccccc21)C(=O)NCc1ccccc1 | inactive | inactive | 37% | 7.59 | 6.12 | 7.97 |  |  |  |  |  |  |  |  |  | 
8 | C[C@H](NC(=O)[C@H](Cc1ccc(OCc2ccccc2)cc1)NC(=O)CCCCCNC(=O)CCCCCNC(=O)CCCCCNC(=O)CCCCCNC(=O)CCCCCNC(=O)CCCCC(=O)N[C@@H](Cc1ccc(OCc2ccccc2)cc1)C(=O)N[C@@H](C)C(=O)N[C@@H](C[C@]1(O)C(=O)Nc2ccccc21)C(=O)NCc1ccccc1)C(=O)N[C@@H](C[C@]1(O)C(=O)Nc2ccccc21)C(=O)NCc1ccccc1 | inactive | inactive | 25% | 7.64 | 6.33 | 7.94 |  |  |  |  |  |  |  |  |  | 
9 | C[C@H](NC(=O)[C@H](Cc1ccc(OCc2ccccc2)cc1)NC(=O)CCCCCNC(=O)CCCCCNC(=O)CCCCCNC(=O)CCCCC(=O)N[C@@H](Cc1ccc(OCc2ccccc2)cc1)C(=O)N[C@@H](C)C(=O)N[C@@H](C[C@]1(O)C(=O)Nc2ccccc21)C(=O)NCc1ccccc1)C(=O)N[C@@H](C[C@]1(O)C(=O)Nc2ccccc21)C(=O)NCc1ccccc1 | inactive | inactive |  | 7.59 | 6.27 | 7.99 |  |  |  |  | 50 h |  |  | 40% |  | 
10 | C[C@H](NC(=O)[C@H](Cc1ccc(OCc2ccccc2)cc1)NC(=O)CCCCCNC(=O)CCCCCNC(=O)CCCCCNC(=O)OC(C)(C)C)C(=O)N[C@@H](C[C@]1(O)C(=O)Nc2ccccc21)C(=O)NCc1ccccc1 | inactive | inactive |  | 6.34 | 6.60 |  |  |  |  |  | 19 h | 6.50 | 7.00 |  |  | 
11 | COC(=O)CCCCCNC(=O)CCCCCNC(=O)CCCCCNC(=O)CCCCC(=O)OC | inactive | inactive |  |  |  |  |  |  | Not Active |  |  |  |  |  | Not Active | Not Active
12 | COC(=O)CCCCCNC(=O)CCCCCNC(=O)CCCCCNC(=O)CCCCCNC(=O)CCCCCNC(=O)CCCCCNC(=O)OC(C)(C)C | inactive | inactive |  |  |  |  |  |  | Not Active |  |  |  |  |  | Not Active | Not Active
